Experimental data published in the Deep4Chem optical property database.
Values belong to the compound of their own block, whether it stands above or below them.

Experiment: solvent given as SMILES

SMILES: c1ccc(-c2nc(-c3ccc(-c4ccc(-c5ccc(-c6nc(-c7ccccc7)c(-c7ccccc7)o6)cc5)cc4)cc3)oc2-c2ccccc2)cc1
absorption maximum (in C1COCCO1): 352 nm

SMILES: C(=C\c1cccc2ccccc12)/c1ccc(-c2nnc(-c3ccc(-c4cc5ccccc5s4)cc3)o2)cc1
absorption maximum (in CC#N): 349 nm
absorption maximum (in CC(C)=O): 350 nm
absorption maximum (in CCCCCCCC): 354 nm
absorption maximum (in CCCCCCCCCCO): 360 nm
absorption maximum (in CCCCCCCCO): 359 nm
absorption maximum (in CCCCCO): 356 nm
absorption maximum (in CCCO): 342 nm
absorption maximum (in CN(C)C=O): 357 nm
absorption maximum (in CO): 351 nm
absorption maximum (in CS(C)=O): 360 nm

SMILES: CC(C)=CC(=O)c1cc2c(cc1F)NC(C)(C)CC2=O
absorption maximum (in CC#N): 356 nm

SMILES: CCCCCCCCn1c2ccccc2c(=O)c2ccccc21
absorption maximum (in CS(C)=O): 404 nm

SMILES: CCOC(=O)c1sc2nc(C)c(C)c(C#N)c2c1N
absorption maximum (in c1ccccc1): 406 nm

SMILES: CCN(CC)c1ccc2cc(/C=C/C3=CC(/C=C/c4cc5ccc(N(CC)CC)cc5oc4=O)=[O+][B-](F)(F)O3)c(=O)oc2c1
absorption maximum (in CC#N): 630 nm
absorption maximum (in CC(C)=O): 620 nm
absorption maximum (in CCOC(C)=O): 604 nm
absorption maximum (in CN(C)C=O): 641 nm
absorption maximum (in CS(C)=O): 652 nm
absorption maximum (in Cc1ccccc1): 598 nm
absorption maximum (in ClC(Cl)Cl): 615 nm
absorption maximum (in ClCCl): 625 nm

SMILES: Clc1ccc(/C=C/c2cnc3ccccc3n2)cc1
absorption maximum (in ClCCl): 355 nm

SMILES: CCC1(CC)c2cc(-c3ccc(C(C)(C)C)cc3)ccc2-c2ccc(-c3ccc4c(c3)C(CC)(CC)c3cc(-c5ccc6c(c5)C(CC)(CC)c5cc(-c7ccc(C(C)(C)C)cc7)ccc5-6)ccc3-4)cc21
absorption maximum (in CO): 360.54 nm

SMILES: CN1C(=CC2=C([O-])C(=O)C2=C(C#N)C#N)C=Cc2ccccc21
absorption maximum (in CCO): 515 nm

SMILES: C(#Cc1cc2ccc3cccc4ccc(c1)c2c34)c1ccccc1
absorption maximum (in Cc1ccccc1): 390 nm

SMILES: O=C1C=C(Nc2cc(F)cc(F)c2)C(=O)c2ccccc21
absorption maximum (in CO): 448 nm

SMILES: CCC(C)[Si](C#Cc1c2nc3c4ccccc4c(=O)c4ccccc4c3nc2c(C#C[Si](C(C)CC)(C(C)CC)C(C)CC)c2nc3c4ccccc4c(=O)c4ccccc4c3nc12)(C(C)CC)C(C)CC (stereo not given)
absorption maximum (in ClCCl): 544 nm

SMILES: COc1ccc(N(c2ccc(C=C(c3ccccc3)c3ccccc3)cc2)c2ccc(OC)cc2)cc1
absorption maximum (in Cc1ccccc1): 376 nm

SMILES: Cc1ccc(N(c2ccc(C)cc2)c2ccc(-c3c4ccccc4c(-c4ccc(N(c5ccc(C)cc5)c5ccc(C)cc5)cc4)c4nsnc34)cc2)cc1
absorption maximum (in Cc1ccccc1): 538 nm
absorption maximum (in ClCCl): 536 nm

SMILES: NCCCCCCCCCCCCN1C(=O)c2ccc3c4ccc5c6c(ccc(c7ccc(c2c37)C1=O)c64)C(=O)N(CCCCCCCCCCCCN)C5=O
absorption maximum (in CN(C)C=O): 523 nm

SMILES: c1cc2ccc3ccc4cc3c2cc1c1ccc2ccc3ccc(cc3c2c1)c1ccc2ccc3ccc4cc3c2c1
absorption maximum (in Cc1ccccc1): 375 nm

SMILES: CCN(CC)c1ccc2c(c1)oc(=O)c1c(=O)oc3cc(Br)ccc3c12
absorption maximum (in CS(C)=O): 469 nm
absorption maximum (in ClCCl): 466 nm

SMILES: CN(C)c1ccc(/C=C2/N=C(c3ccccc3)OC2=O)cc1
absorption maximum (in C1CCCCC1): 456 nm
absorption maximum (in C1COCCO1): 466 nm
absorption maximum (in CC#N): 473 nm
absorption maximum (in CC(C)=O): 470 nm
absorption maximum (in CC(C)O): 470 nm
absorption maximum (in CCCCCC): 443 nm
absorption maximum (in CCCCCO): 470 nm
absorption maximum (in CCCCO): 472 nm
absorption maximum (in CCO): 470 nm
absorption maximum (in CN(C)C=O): 482 nm
absorption maximum (in CO): 473 nm
absorption maximum (in ClC(Cl)(Cl)Cl): 466 nm
absorption maximum (in ClC(Cl)Cl): 472 nm
absorption maximum (in ClCCl): 472 nm

SMILES: O=c1c2cc(F)c(O)cc2oc2cc(N3CCCCC3)c(F)cc12
absorption maximum (in CCO): 373 nm

SMILES: c1cc2cc(c1)c1cccc(c1)c1ccc3ccc4ccc(cc4c3c1)c1cccc(c1)c1cccc2c1
absorption maximum (in Cc1ccccc1): 343 nm

SMILES: C/C=C/C=C/C1=NC(=C\c2ccc([O-])cc2)/C(=O)N1C
absorption maximum (in O): 482 nm

SMILES: CCOC(=O)CCCCCn1c2ccccc2c(=O)c2cc(I)ccc21
absorption maximum (in CO): 414 nm

SMILES: CCCCCCCCN1c2ccccc2Sc2cc(/C=C/c3ccc(N(c4ccc(/C=C/c5ccc6c(c5)Sc5ccccc5N6CCCCCCCC)cc4)c4ccc(/C=C/c5ccc(/C=C/c6ccc(N(c7ccc(/C=C/c8ccc(N(c9ccccc9)c9ccccc9)cc8)cc7)c7ccc(/C=C/c8ccc(N(c9ccccc9)c9ccccc9)cc8)cc7)cc6)c6nsnc56)cc4)cc3)ccc21
absorption maximum (in C1CCOC1): 534 nm
absorption maximum (in CCOC(C)=O): 524 nm
absorption maximum (in CN(C)C=O): 528 nm
absorption maximum (in Cc1ccccc1): 533 nm
absorption maximum (in ClC(Cl)Cl): 534 nm
absorption maximum (in ClCCl): 533 nm

SMILES: C[Si]1(C)c2cc(-c3ccc(-c4cccs4)s3)ccc2C=Cc2ccc(-c3ccc(-c4cccs4)s3)cc21
absorption maximum (in ClCCl): 458 nm

SMILES: N#Cc1c(-n2nnc3c2-c2ccccc2CN(C(=O)CCN)c2ccccc2-3)n([C@H]2C[C@H](O)[C@@H](CO)O2)c2ncnc(N)c12
absorption maximum (in CO): 290 nm

SMILES: CCCCCCCCCCCCCCCCn1c(-c2cc(-c3nc4ccc(C)cc4n3CCCCCCCCCCCCCCCC)cc(-c3nc4ccc(C)cc4n3CCCCCCCCCCCCCCCC)c2)nc2ccc(C)cc21
absorption maximum (in ClCCl): 306 nm

SMILES: CCC1=C(C)c2cc3c(OC)cc(OC)cc3c(=O)n2C1=O
absorption maximum (in CC#N): 433 nm
absorption maximum (in CO): 433 nm
absorption maximum (in CS(C)=O): 434 nm
absorption maximum (in ClC(Cl)Cl): 434 nm

SMILES: COc1ccc(C#Cc2nc(C#Cc3ccc(OC)cc3)c(C#Cc3ccc(OC)cc3)c(C#Cc3ccc(OC)cc3)c2C#Cc2ccc(OC)cc2)cc1
absorption maximum (in ClCCl): 421 nm

SMILES: CCCCC(CC)Cn1c2cc(C#N)c(-c3ccc(N(c4ccccc4)c4ccccc4)cc3)cc2c2cc(-c3ccc(N(c4ccccc4)c4ccccc4)cc3)c(C#N)cc21 (stereo not given)
absorption maximum (in ClCCl): 420 nm

SMILES: CCCCCCCCCCCCOc1cc(C(=O)Nc2ccc(-c3ccc4c(c3)C(=O)c3ccccc3-4)cc2)cc(OCCCCCCCCCCCC)c1OCCCCCCCCCCCC
absorption maximum (in C1CCOC1): 432 nm

SMILES: O=C1O[B-]2(OC1=O)OC(c1ccccc1)=CC(c1ccccc1)=[O+]2
absorption maximum (in CC#N): 384 nm
absorption maximum (in ClC(Cl)(Cl)Cl): 384 nm

SMILES: COc1ccc(N(c2ccc(OC)cc2)c2ccc(-c3ccc4c(c3)C(=O)c3ccccc3C4=O)cc2)cc1
absorption maximum (in C1CCOC1): 477 nm
absorption maximum (in CCCCCC): 468 nm
absorption maximum (in CCOC(C)=O): 472 nm
absorption maximum (in CCOCC): 472 nm
absorption maximum (in Cc1ccccc1): 481 nm
absorption maximum (in ClC(Cl)(Cl)Cl): 483 nm
absorption maximum (in ClCCl): 485 nm

SMILES: CC1=C(c2cccs2)C(C)=[N+]2C1=C(c1ccc(O)cc1)c1c(C)c(-c3cccs3)c(C)n1[B-]2(F)F
absorption maximum (in CO): 521 nm
absorption maximum (in Cc1ccccc1): 530 nm
absorption maximum (in ClCCl): 528 nm

SMILES: CCCCC(CC)Cn1c2cc(C#N)ccc2c2ccc(C#N)cc21 (stereo not given)
absorption maximum (in ClCCl): 387 nm

SMILES: CCCSc1ccc2n1[B-](F)(F)[N+]1=CC=CC1=C2c1ccccc1
absorption maximum (in CC#N): 531 nm
absorption maximum (in CCCCCC): 536 nm
absorption maximum (in CCOC(C)=O): 534 nm
absorption maximum (in CO): 536 nm
absorption maximum (in ClCCl): 537 nm

SMILES: Cc1ccc(-n2c3ccc(-c4ccc(-c5nc6ccccc6n5-c5ccccc5)cc4)cc3c3cc(-c4ccc(-c5nc6ccccc6n5-c5ccccc5)cc4)ccc32)cc1
absorption maximum (in ClC(Cl)Cl): 318 nm

SMILES: Cn1nc(-c2ccc(C(F)(F)F)cc2)cc1-c1ccccc1
absorption maximum (in ClCCl): 260 nm

SMILES: CC[N+]1(CC)CN2C(=N1)C(C(=O)O)=Cc1c2ccc2ccccc12
absorption maximum (in O): 406 nm

SMILES: CC(C)(C)c1ccc2c(c1)c1cc(C(C)(C)C)ccc1n2-c1ccc(-c2cccs2)s1
absorption maximum (in ClCCl): 340 nm

Now from value to compound:

absorption maximum (in ClCCl): 311 nm
SMILES: COc1cc2c(cc1OC)C1=C[C@H](c3ccccc3)C3(C(C#N)=C(C#N)N1CC2)c1cc(Br)ccc1-c1ccc(Br)cc13

absorption maximum (in ClC(Cl)Cl): 362 nm
SMILES: COc1ccc2cc(-c3ccc(-c4cc5ccc(OC)cc5oc4=O)cc3)c(=O)oc2c1

absorption maximum (in C1CCOC1): 396 nm
SMILES: CC(C)(C)c1ccc(-c2cc3cc4c(cc(-c5ccc(C(C)(C)C)cc5)p4-c4ccccc4)cc3p2-c2ccccc2)cc1 (stereo not given)

absorption maximum (in CC#N): 410 nm
SMILES: CCOC(=O)c1c2c3c(ccc(F)c3c3cc4ccccc4cc13)N(C)C2=O

absorption maximum (in CN(C)C=O): 347 nm
SMILES: C(=C\c1ccc(-c2nnc(-c3ccccc3)o2)cc1)/c1ccc(-c2nnc(-c3ccccc3)o2)cc1

absorption maximum (in CCO): 595 nm
absorption maximum (in ClC(Cl)Cl): 608 nm
absorption maximum (in ClCCl): 607 nm
SMILES: CCN(CC)c1ccc2c(-c3ccccc3C(=O)O)c3c([o+]c2c1)/C(=C/Nc1ccccc1)CCC3

absorption maximum (in C1CCOC1): 366 nm
SMILES: N#C/C(=C\c1ccc(C=C(c2ccccc2)c2ccccc2)cc1)c1ccccc1

absorption maximum (in ClCCl): 718 nm
SMILES: COc1ccc2cc(C3=[N+]4C(=Nc5c(-c6ccc7ccccc7c6)cc(-c6ccc7cc(OC)ccc7c6)n5[B-]4(F)F)C(c4ccc5ccccc5c4)=C3)ccc2c1

absorption maximum (in CCO): 376 nm
SMILES: O=Cc1ccc(-c2ccc(-c3nc4ccccc4s3)c(O)c2)s1

absorption maximum (in ClCCl): 311 nm
SMILES: CCOC(=O)C1=C(C(=O)OCC)C2(c3ccccc3-c3ccccc32)[C@@H](c2ccccc2)C=C2c3cc(OC)c(OC)cc3CCN21

absorption maximum (in CC#N): 340 nm
absorption maximum (in CCCCOCCCC): 341 nm
absorption maximum (in CO): 340 nm
SMILES: COc1nc(Nc2ccc3ccc4cccc5ccc2c3c45)nc(OC)n1

absorption maximum (in CC1CCCO1): 598 nm
SMILES: CC1=CC(C)=[N+]2C1=C(c1ccc(C)cc1)c1c(C)cc(/C=C/c3ccc4ccc5cccc6ccc3c4c56)n1[B-]2(F)F

absorption maximum (in ClCCl): 433 nm
SMILES: c1cc2ccc3cc4cccc5ccc6cc(c1)c2c3c6c54

absorption maximum (in CC#N): 683 nm
SMILES: CN1/C(=C\C=C\C2=C3C=CC(c4ccccc4)=[N+]3[B-](F)(F)n3c2ccc3-c2ccccc2)Sc2ccccc21

absorption maximum (in ClCCl): 343 nm
SMILES: O=[N+]([O-])c1ccc2c(c1)-c1c3c(c4c([n+]1[B-](F)(F)O2)CCc1ccccc1-4)CCc1ccccc1-3

absorption maximum (in ClCCl): 394 nm
SMILES: F[B-]12OC(c3ccccc3)=Nc3cccc([n+]31)N=C(c1ccccc1)O2

absorption maximum (in CC#N): 350 nm
SMILES: O=[N+]([O-])c1ccc(C#Cc2ccccc2C#Cc2ccc([N+](=O)[O-])cc2)cc1

absorption maximum (in ClCCl): 356 nm
SMILES: N#C/C(=C\c1ccc(-c2ccncc2)cc1)c1ccc(-c2ccncc2)cc1

absorption maximum (in CCCCCCC): 408 nm
SMILES: c1cc2c3c(cccc3c1)-c1c-2ccc2ccc3ccccc3c12

absorption maximum (in ClCCl): 475 nm
SMILES: O=c1c2cccc3cccc(c32)c2nc3cccc4cccc(c43)n12
